Measurements as given in a melting point compilation (Tetko et al.).
Residues, ends and D or L forms follow the SMILES beside them. *: point of attachment. Butoxycarbonyl = CCCCOC(=O)*; Bn = c1ccc(C*)cc1

| SMILES | melting point |
| --- | --- |
| CC1N=C(c2ccccc2)c2cc(Cl)ccc2-n2c1nnc2C(CN(C)C)c1ccccc1 (stereo unspecified) | 200 to 203 °C |
| FC(F)(F)c1ccc(Cl)nc1Cl | 6 °C |
| CC(c1cc(C(C)(C)C)cc(C(C)(C)C)c1O)c1cc(C(C)(C)C)cc(C(C)(C)C)c1OP1Oc2c(cc(C(C)(C)C)cc2C(C)(C)C)C(C)c2cc(C(C)(C)C)cc(C(C)(C)C)c2O1 (stereo unspecified) | 219 to 221 °C |
| CS(=N)(=O)c1ccc([N+](=O)[O-])c(C(=O)C2C=CC(C(F)(F)F)=C(Oc3ccccc3)C2(Cl)[N+](=O)[O-])c1 (stereo unspecified) | 62 to 63 °C |
| CC(=O)OCC1OC(n2cc(C3=C(c4cn(S(=O)(=O)c5ccccc5)c5ncccc45)C(=O)N(COCc4ccccc4)C3=O)c3cccnc32)C(OC(C)=O)C(OC(C)=O)C1OC(C)=O (stereo unspecified) | 108 to 110 °C |
| O=C(CN1CCN(C(=O)c2cc(C(F)(F)F)cc(C(F)(F)F)c2)[C@H](Cc2c[nH]c3ccccc23)C1)N1CCN(C(c2ccccc2)(c2ccccc2)c2ccccc2)CC1 | 160 to 166 °C |
| Ic1cc(NC2=NCCN2)cc2[nH]cnc12 | 180 to 181 °C |
| O=Cc1ccc(OC(F)F)c(O)c1 | 82 to 83 °C |
| C=C(C)C(=O)OCCCCOC(=O)C(=C)C | -117 °C |
| CCCCCCCCCCOc1cc2c3cc(OCCCCCCCCCC)c(OCCCCCCCCCC)cc3c3c(OC)ccc(OC)c3c2cc1OCCCCCCCCCC | 69 to 70 °C |
| [C-]#[N+]C(c1cc(Br)c(OC)c(OC)c1)S(=O)(=O)c1ccc(C)cc1 (stereo unspecified) | 109 to 110 °C |
| CC(C)(C)c1cc(-c2nnc(NC(=N)N)o2)cc(C(C)(C)C)c1O | 223 to 224 °C |
| CCCCOC(=O)NC(COCc1ccccc1)C(=O)NC(Cc1c[nH]c2ccccc12)C(=O)NC(CO)C(=O)NC(Cc1ccc(O)cc1)C(=O)NC(Cc1ccccc1)C(=O)NC(CC(C)C)C(=O)OC (stereo unspecified) (Butoxycarbonyl-S(Bn)WSYFL-OMe; configuration not given here) | 200 to 202 °C |
| Cc1cc(CNC(=O)c2nc(N3CCOCC3)n(C)c(=O)c2O)ccc1F | 182 to 185 °C |
| O=C1CCc2cc(O)c(I)cc21 | 114 to 115 °C |
| O=P(O)(O)CN(CP(=O)(O)O)CP(=O)(O)O | 215 °C |
| Cc1ccc(C(c2ccc(C)c(C(OS(C)(=O)=O)(C(F)(F)F)C(F)(F)F)c2)(C(F)(F)F)C(F)(F)F)cc1C(OS(C)(=O)=O)(C(F)(F)F)C(F)(F)F | 135 °C |

| SMILES | melting point |
| --- | --- |
| N=S(=O)(C=Cc1ccccc1N)c1ccccc1 (stereo unspecified) | 95 to 96 °C |
| CC(C)OC(=O)C(CCC(C(=O)OC(C)C)N1CCN(CC(=O)OC(C)(C)C)CCN(C=O)CCN(CC(=O)OC(C)(C)C)CC1)N1CCN(CC(=O)OC(C)(C)C)CCN(C=O)CCN(CC(=O)OC(C)(C)C)CC1 (stereo unspecified) | 125 to 127 °C |
| CC(=O)c1ccc(-n2c(-c3sc(Nc4ccc(Cl)cc4)nc3C)nc3ccccc3c2=O)cc1 | 209 to 210 °C |
| CCCCCCCCCCCCCCCCCCOc1cc(OCCCCc2ccc3cc(OCc4ccccc4)c(OCc4ccccc4)cc3c2)cc(N(CC(=O)O)CC(=O)O)c1 | 83 to 86 °C |
| Cn1nc(COC(=O)CCC(=O)OCc2nc(NCCCOc3cccc(CN4CCCCC4)c3)n(C)n2)nc1NCCCOc1cccc(CN2CCCCC2)c1 | 80 to 81.5 °C |
| NC(=O)c1cnn(-c2ncc(C(F)(F)F)cc2Cl)c1NC(=O)C1(F)CC1 | 204 °C |
| CC(C)(C)c1cc(SC(Sc2cc(C(C)(C)C)c(O)c(C(C)(C)C)c2)C(Sc2cc(C(C)(C)C)c(O)c(C(C)(C)C)c2)Sc2cc(C(C)(C)C)c(O)c(C(C)(C)C)c2)cc(C(C)(C)C)c1O | 221 to 223 °C |
| NC(=O)c1c(C(=O)O)cnn1-c1ccccc1 | 234 to 235 °C |
| Oc1c(Br)c(Br)c(-c2c(Br)c(Br)c(O)c(Br)c2Br)c(Br)c1Br | 282 °C |
| CCCCCCC1(CCCCCC)c2cc(-c3ccc4c(c3)nc(N)c3nc(COCC)n(CC(C)(C)O)c34)ccc2-c2ccc(-c3ccc4c(c3)nc(N)c3nc(COCC)n(CC(C)(C)O)c34)cc21 | 261 to 265 °C |
| Cc1ccc(C(=O)Oc2ccc3c(OC(=O)c4ccc(C)c(OCc5ccccc5)c4)c4ccccc4cc3c2OC(=O)c2ccc(C)c(OCc3ccccc3)c2)cc1OCc1ccccc1 | 132 to 135 °C |
| CNC(=O)[C@@H](NC(=O)[C@@H](NC(=O)c1c(I)c(NC(C)=O)c(I)c(C(=O)O)c1I)C(C)C)C(C)C | 247 to 248 °C |
| CC(C)[C@H](NC(=O)N1CCN(Cc2ccccc2)CC1)C(=O)N[C@@H](Cc1ccccc1)[C@@H](O)[C@H](O)[C@H](Cc1ccccc1)NC(=O)[C@@H](NC(=O)N1CCN(Cc2ccccc2)CC1)C(C)C | 178 to 179 °C |
| C=CC(CC(O)C(CC1CCCCC1)NC(=O)C(Cc1c[nH]cn1)NC(=O)C(Cc1ccccc1)NC(=O)CN(CCNC(=O)OC(C)(C)C)C(=O)OC(C)(C)C)C(C)C (stereo unspecified) | 109 °C |
| O=S(=NCCN1CCOCC1)(c1cccs1)c1cccs1 | 190 °C |
| CC(NC(=O)C(CC(C(=O)O)C(C)(C)C)NC(=O)C(CC(C(=O)O)C(C)(C)C)NC(=O)C(NC(=O)C(N)C(C)C)C(C)C)C(=O)NC(CC(C(=O)O)C(C)(C)C)C(=O)NC(CC(N)=O)C(=O)OC(C)(C)C (stereo unspecified) | 229 to 231 °C |

Second part, the compound after the results:

| melting point | SMILES |
| --- | --- |
| 68.5 to 69.5 °C | CCCCCCCCCCCCCCCCCCOC(=O)c1cc(C(C)(C)C)c(O[Si](C)(C)Oc2c(C(C)(C)C)cc(C(=O)OCCCCCCCCCCCCCCCCCC)cc2C(C)(C)C)c(C(C)(C)C)c1 |
| 107 to 108 °C | CS(=O)(=O)c1ccc(C(Cc2ccccc2Cl)C(=O)Nc2nc3ccccc3o2)cc1 (stereo unspecified) |
| 210 °C | CSCC[C@H](NC(=O)[C@H](CC(C)C)NC(=O)[C@H](C)NC(=O)[C@@H](N)CC(C)C)C(=O)NCCNc1ccc(NCCNC(=O)[C@H](CCSC)NC(=O)[C@H](CC(C)C)NC(=O)[C@H](C)NC(=O)[C@@H](N)CC(C)C)c2c1C(=O)c1c(O)ccc(O)c1C2=O |
| 125 to 145 °C | COC1C(=O)C2(C)C(OC)CC3OCC3(OC(C)=O)C2C(OC(=O)c2ccccc2)C2(O)CC(OC(=O)C(O)C(NC(=O)OC(C)(C)C)c3ccccc3)C(C)=C1C2(C)C (stereo unspecified) |
| 101 to 111 °C | CCc1cn(C2OC(CNC(=O)C(C)Oc3cc(OC)c(Br)cc3Br)C(OC(=O)C(NC(=O)OC(C)(C)C)C(C)C)C2F)c(=O)[nH]c1=O (stereo unspecified) |
| 96 to 98 °C | [C-]#[N+]C1Cc2ccccc2C(=C)c2ccccc21 (stereo unspecified) |
| 135 to 137 °C | O=c1cc(-c2ccc(OCCOCCOCCOCCOCCOCCOCCOCCOCCOc3ccc(-c4cc(=O)c5c(O)cc(O)cc5o4)cc3)cc2)oc2cc(O)cc(O)c12 |
| 202 °C | CC(=O)N1C(C)(C)CC(OC(=O)C(Cc2cc(C(C)(C)C)c(O)c(C(C)(C)C)c2)(Cc2cc(C(C)(C)C)c(O)c(C(C)(C)C)c2)C(=O)OC2CC(C)(C)N(C(C)=O)C(C)(C)C2)CC1(C)C |
| 247 to 249 °C | O=c1cc(O)cc(-c2ccc(Cl)cc2)o1 |
| 166 to 167 °C | CCCCCCCCCCCCCCCCCN1C(=O)C2=C(c3ccc(Br)s3)N(CCCCCCCCCCCCCCCCC)C(=O)C2=C1c1ccc(Br)s1 |
| 173 to 174 °C | CN(Cc1ccccc1)Cc1c(-c2ccc([N+](=O)[O-])cc2)sc2c1c(=O)n(-c1ccccc1)c(=O)n2Cc1c(F)cccc1F |
| 127 to 129 °C | O=C(O)Cc1cccc(-c2cc(C(=O)CCCCC(=O)c3ccc(OC4OC(CO)C(O)C(O)C4O)c(-c4cccc(CC(=O)O)c4)c3)ccc2OC2OC(CO)C(O)C(O)C2O)c1 (stereo unspecified) |
| 91 to 93 °C | CCCCCCCCCCCCCCCCCCN(CCCCCCCCCCCCCCCCCC)C(=O)c1c(NS(=O)(=O)c2cccc(C(C)=O)c2)cc2ccccc2c1OC(=O)c1ccccc1 |
| 176 °C | O=C(Nc1ccc(N2CCNCC2)cc1)c1ccccc1-c1ccccc1 |
| 115 to 118 °C | CCc1nc2c(cnn2CC)c(NC2CCOCC2)c1CNC(=O)c1cccc(C(=O)NCc2ccc(C)c(-c3cccc(CN4CCN(C(=O)OC(C)(C)C)C(C)C4)c3)c2)c1 (stereo unspecified) |
| 31 to 32.1 °C | CCCCCCCCCCCC(=O)OC(CCCCCCCCCCC)CC(=O)NC(CCOP(=O)(Oc1ccccc1)Oc1ccccc1)C(=O)OCc1ccccc1 (stereo unspecified) |
| 167 to 171 °C | CC(C)c1cc(C(C)C)c(CC(=O)NS(=O)(=O)Oc2c(C(C)C)cc(C(=O)[C@H](CCCCNC(=O)OC(C)(C)C)NC(=O)OC(C)(C)C)cc2C(C)C)c(C(C)C)c1 |
| 126 °C | CC(C)(CCCCCCCCC(C)(C)NC(=O)C(C)(C)Cc1cc(C(C)(C)C)c(O)c(C(C)(C)C)c1)NC(=O)C(C)(C)Cc1cc(C(C)(C)C)c(O)c(C(C)(C)C)c1 |
| 85 to 91 °C | CN(C(=O)C(CC(Cc1ccccc1)C(N)=O)NC(=O)OCc1ccccc1)c1ccc(OCC(=O)NC(CC(N)=O)C(=O)NC(Cc2ccccc2)C(O)C(=O)N2CCCC2C(=O)NC(C)(C)C)cc1 (stereo unspecified) |
| 216 to 217 °C | Cc1cc(-c2nc3c(S(C)=O)cc(Cl)nn3c2-c2ccnc(N)c2)ccc1F (stereo unspecified) |
| 238 to 239 °C | CN(c1cccc2cc(C3=NCC(C(=O)N4CCOCC4)S3)[nH]c12)S(=O)(=O)c1cccs1 (stereo unspecified) |
| 220 to 223 °C | CCCC(=O)c1c[nH]c2ccc(COC(=O)c3ccccc3)cc2c1=O |
| 199 °C | COc1cc(C2c3cc4c(cc3C(NC(=O)CNCCCCN(CCCNC(=O)OCc3ccccc3)C(=O)OCc3ccccc3)C3COC(=O)C23)OCO4)cc(OC)c1O (stereo unspecified) |
| 93 to 95 °C | CCCCCCCCCCCCCCCCOC(=O)c1ccc(C(=O)N(CCCCCCCCCCCCCCCC)OCCCCCCCCCCCCCCCC)nc1 |
| 217 to 222 °C | CC1CC2C3CCC4=CC(=O)C=CC4(C)C3(Cl)C(O)CC2(C)C1(O)C(=O)CO (stereo unspecified) |
| 83 to 88 °C | O=C(OI(OC(=O)C(F)(F)F)C(F)(F)C(F)(F)C(F)(F)C(F)(F)C(F)(F)C(F)(F)C(F)(F)C(F)(F)C(F)(F)C(F)(F)F)C(F)(F)F |
| 80 to 82 °C | C=CCOC1OC(CO)C(O)C(OC(=O)CC(CCCCCCCCCCC)OCc2ccccc2)C1NC(=O)CC(CCCCCCCCCCC)OCc1ccccc1 (stereo unspecified) |
| 60.2 °C | C=C(C)C(=O)OCCCCCCCCCCCOc1ccc(-c2nc(-c3ccc(OCCCCCCCCCCCOC(=O)C(=C)C)cc3O)nc(-c3ccc(OCCCCCCCCCCCOC(=O)C(=C)C)cc3O)n2)c(O)c1 |
